This passage reports Kd results from paper PMC7033309, “π-Helix controls activity of oxygen-sensing diguanylate cyclases” (Bioscience Reports, 2020).

For this test, the target named is T1, PccGCS (Pectobacterium carotovorum, UniProt C6D9C2, H237A/K238A).
T1 construct: gene PC1_2619; full-length PccGCS H237A/K238A (His-tagged)
T1 sequence (C6D9C2 1-471 H237A/K238A): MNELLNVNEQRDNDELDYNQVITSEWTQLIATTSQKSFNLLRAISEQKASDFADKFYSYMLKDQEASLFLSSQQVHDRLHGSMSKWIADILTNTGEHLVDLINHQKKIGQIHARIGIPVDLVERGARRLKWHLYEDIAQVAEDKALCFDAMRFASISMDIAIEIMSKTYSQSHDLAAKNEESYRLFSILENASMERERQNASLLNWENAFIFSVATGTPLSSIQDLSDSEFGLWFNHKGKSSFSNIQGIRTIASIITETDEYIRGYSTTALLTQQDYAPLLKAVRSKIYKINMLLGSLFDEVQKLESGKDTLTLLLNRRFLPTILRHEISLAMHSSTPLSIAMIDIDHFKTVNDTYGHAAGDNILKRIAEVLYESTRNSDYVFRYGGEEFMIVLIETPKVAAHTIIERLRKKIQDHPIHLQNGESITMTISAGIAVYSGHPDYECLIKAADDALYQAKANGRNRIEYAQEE
As to the kind of experiment: isothermal titration calorimetry, […]°C. The class given is binding. (Isothermal titration calorimetry measures the heat released or taken up as one component is titrated into another.)

`Nc1nc2c(ncn2[C@@H]2O[C@H](COP(=O)(O)CP(=O)(O)OP(=O)(O)O)[C@@H](O)[C@H]2O)c(=O)[nH]1` [GpCpp, guanosine-5′-[(α,β)-methyleno]triphosphate]: binding was put at a Kd of 9.7 ± 3.9 µM.
